{
  "source": "paper PMC9326216",
  "about": "“Treatment of Cardiovascular Dysfunction with PDE3-Inhibitors in Moderate and Severe Hypothermia—Effects on Cellular Elimination of Cyclic Adenosine Monophosphate and Cyclic Guanosine Monophosphate” (Frontiers in Physiology, 2022)",
  "key": {"ABCC4": {"molecular_target": "T1, ABCC4 (Homo sapiens, UniProt O15439)", "T1 sequence (O15439 1-1325)": "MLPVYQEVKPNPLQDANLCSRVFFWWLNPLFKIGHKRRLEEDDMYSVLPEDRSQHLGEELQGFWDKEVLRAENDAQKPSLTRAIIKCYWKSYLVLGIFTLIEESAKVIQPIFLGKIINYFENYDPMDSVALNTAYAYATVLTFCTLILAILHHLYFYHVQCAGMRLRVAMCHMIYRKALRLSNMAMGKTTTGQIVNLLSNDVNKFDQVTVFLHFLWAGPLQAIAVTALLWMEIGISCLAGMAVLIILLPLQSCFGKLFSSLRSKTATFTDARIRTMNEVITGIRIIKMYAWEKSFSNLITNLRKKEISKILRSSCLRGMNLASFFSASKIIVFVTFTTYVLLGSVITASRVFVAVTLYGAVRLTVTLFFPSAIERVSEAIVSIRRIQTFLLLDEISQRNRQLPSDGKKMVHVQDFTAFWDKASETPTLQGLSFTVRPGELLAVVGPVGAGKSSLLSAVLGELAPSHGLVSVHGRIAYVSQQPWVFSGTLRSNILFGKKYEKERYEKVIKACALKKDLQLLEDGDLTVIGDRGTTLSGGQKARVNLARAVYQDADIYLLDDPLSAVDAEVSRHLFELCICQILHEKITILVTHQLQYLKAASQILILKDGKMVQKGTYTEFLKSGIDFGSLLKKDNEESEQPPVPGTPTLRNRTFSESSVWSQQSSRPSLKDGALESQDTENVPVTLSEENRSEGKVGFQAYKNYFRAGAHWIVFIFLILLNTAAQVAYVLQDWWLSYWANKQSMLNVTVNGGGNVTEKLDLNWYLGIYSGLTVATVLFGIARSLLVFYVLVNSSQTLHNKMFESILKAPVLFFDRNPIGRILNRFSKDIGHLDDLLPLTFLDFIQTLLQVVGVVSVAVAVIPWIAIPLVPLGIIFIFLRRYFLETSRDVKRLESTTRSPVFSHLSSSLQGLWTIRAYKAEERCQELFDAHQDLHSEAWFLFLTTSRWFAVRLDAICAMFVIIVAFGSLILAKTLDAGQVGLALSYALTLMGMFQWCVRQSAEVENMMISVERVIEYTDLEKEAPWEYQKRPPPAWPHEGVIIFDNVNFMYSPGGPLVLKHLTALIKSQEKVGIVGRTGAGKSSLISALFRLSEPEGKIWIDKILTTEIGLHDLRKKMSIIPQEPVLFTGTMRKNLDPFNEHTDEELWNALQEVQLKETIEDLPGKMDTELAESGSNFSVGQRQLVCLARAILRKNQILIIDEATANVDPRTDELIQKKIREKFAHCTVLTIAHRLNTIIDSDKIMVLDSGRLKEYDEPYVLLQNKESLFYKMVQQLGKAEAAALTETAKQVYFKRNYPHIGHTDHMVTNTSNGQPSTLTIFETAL", "assay": "biochemical", "format": "biochemical", "conditions": "cAMP-efflux, inside-out vesicles; for IC50: 20 µM 3H-cAMP, 60 min; for Ki: ABCC4 Ki", "method": "Freshly collected EDTA blood from healthy donors (n = 35) was prepared at 0°C–4°C, starting by separating the erythrocytes from plasma by centrifugation at 2,300 g for approximately 15 min. […] Lysis followed thereafter, with ten volumes of 5 mM Tris-HCl, 0.5 mM EGTA, 4 mM KCl (pH 8.1) and washed by repeated centrifugation at 20,000 g for 20 min and resuspension in the same buffer. Vesiculation was initiated by adding 39 volumes of a […] buffer ([…] Tris-HCl, pH 8.2) to one volume of cell suspension and completed by forcing the solution five times through a 27-gauge syringe needle to promote homogenization of the membranes. […] The resulting IOVs, which still contained ABC-transporters in the membrane, enabled us to control the intracellular environment, in this case the surrounding medium, and collect the cyclic nucleotides within. […] Radioactive labeled (^3H)-cAMP or (^3H)-cGMP (Perkin Elmer, Boston, MA, United States) were added to the incubation solutions in the concentration 20 and 2 μM, respectively, depending on the transporter examined, together with the appointed study drug in concentrations up to 1 mM. […] Next step was to collect the IOVs, which was done by filtration through a nitrocellulose membrane (Bio-Rad Laboratories, Feldkirchen, Germany), and then drying it. The resulting collection of radioactivity upon the filter, was later quantified by using a Packard TopCount NXT (Packard, Downers Grove, IL, United states) after adding scintillation fluid (MicroScint-O, PerkinElmer, Groningen, Netherlands).\nIC50 and Ki values were calculated for each of the drugs, both for their ability to inhibit cAMP- and cGMP- efflux, as well as PDE3 and PDE5 activity. […] Inhibition curves were created accordingly, both with and without adjustment for normothermic control."}, "erythrocytes": {"test_system": "erythrocytes", "assay": "Intracellular access of the drugs in erythrocytes (LC-MS)", "format": "in vitro ADME, human", "conditions": "30 min incubation, milrinone 10 µM, amrinone 100 µM, levosimendan 1 µM", "method": "Fresh (<24 h) EDTA blood from healthy donors (n = 18) was obtained and washed with Krebs-Ringer-Phosphate-Buffer containing glucose (KRPB/G, pH 7.4) and centrifuged (10 min, 1,000 g) three consecutive times. Plasma and buffy coat were removed. KRPB/G was added to the cell solution to bring it to the ratio 1:2.5. Hematocrit (Hct) was measured and adjusted with additional buffer to reach 0.44, in order to give the final Hct of 0.40 in the incubation solution. […] The reaction was stopped by placing the test tubes on ice and adding 4 ml of ice cold KRFB/G. The samples were subsequently centrifugated (5 min, 600 g), then washed with KRFB/G once more and centrifugation was repeated twice. 50 µl of the remaining red blood cell suspension was transferred to Eppendorf tubes. 50 µl 500 nM IS-Milrinone-d3 was added as an internal standard (TLC Pharmaceutical Standards Ltd.). 200 µl ZnSO4 was added to each test sample, to induce lysis of the cells, and mixed in a vortex mixer. 30 µl of the samples were used for measurement of protein concentration, the rest was mixed with 500 µl acetonitrile and centrifugated (2 min, 13400 g). Finally, 100 µl of the solution was collected for analysis using mass spectrometry (MS).\nLiquid chromatography tandem mass spectrometry (LC-MS) was used to assess concentrations of the inhibitors for experiments performed to determine intracellular access of these drugs, as well as to quantify levels of cAMP/AMP and cGMP/GMP for the PDE3-and PDE5-inhibition plots. Internal standards were used, as described previously. There was a linearity from 0.2 nM to at least 2000 nM (r^2 > 0.998) for cAMP, AMP, and cGMP. For GMP, linearity was present from 2 nM to at least 2000 nM (r^2 > 0.998). Concerning PDE3-inhibitors, the linearity was found at 10 nM to at least 5,000 nM (r^2 > 0.99). Lower limit of quantification (LLOQ) was 0.2 for cAMP, cGMP, and AMP, 2 nM for GMP and 10 nM for PDE3-inhibitors (2 µl injection volume).\nIntracellular concentrations of drugs were adjusted for protein concentrations in each sample. The total incubation concentrations were also adjusted for protein concentrations to evaluate the degree of access in percentage. Statistical analysis was performed using one-way ANOVA with Holm-Sidak multiple comparisons post hoc test at each temperature. ANOVA on ranks with Dunn post hoc test was used when the results were not normally distributed. The results are presented as means ± standard error of mean (SEM). p-values < 0.05 were considered significant results. Degrees of freedom (dF) is given as between group values. SigmaPlot 14.0 (Systat Software, San Jose, CA, United States) was used for all analysis, as well as creating the graphs."}},
  "data": [
    {"smiles": "Cc1[nH]c(=O)c(C#N)cc1-c1ccncc1", "note": "[Milrinone]", "values": [
      {"measurement": "IC50", "setting": "ABCC4; ABCC4 IC50, 28°C", "result": "37.4 ± 24.5", "unit": "µM"},
      {"measurement": "IC50", "setting": "ABCC4; ABCC4 IC50, 32°C", "result": "32.9 ± 14.6", "unit": "µM"},
      {"measurement": "IC50", "setting": "ABCC4; ABCC4 IC50, 34°C", "result": "67 ± 22.6", "unit": "µM"},
      {"measurement": "IC50", "setting": "ABCC4; ABCC4 IC50, 37°C", "result": "58.9 ± 13.1", "unit": "µM"},
      {"measurement": "Ki", "setting": "ABCC4; 28°C", "result": "22.7 ± 14.9", "unit": "µM"},
      {"measurement": "Ki", "setting": "ABCC4; 32°C", "result": "20 ± 8.86", "unit": "µM"},
      {"measurement": "Ki", "setting": "ABCC4; 34°C", "result": "40.6 ± 13.7", "unit": "µM"},
      {"measurement": "Ki", "setting": "ABCC4; 37°C", "result": "35.7 ± 7.94", "unit": "µM"},
      {"measurement": "Intracellular access, % of drug concentration per gram protein in the incubation solution", "setting": "erythrocytes; 28°C", "result": "15.06 ± 0.544", "unit": "%"},
      {"measurement": "Intracellular access, % of drug concentration per gram protein in the incubation solution", "setting": "erythrocytes; 34°C", "result": "11.41 ± 1.675", "unit": "%"}
    ]}
  ]
}
